Structures can show the parent of a compound that is named as a salt.
Legend:
Cdk2/cyclin A = Cdk2/cyclin A (Homo sapiens, UniProt P24941); assay: Assay for inhibition of Cdk2/Cyclin A (32P incorporation into retinoblastoma protein, filter plate); format: biochemical
Description: (§1) To determine the inhibitory potency and selectivity of compounds of the present invention against Cdk4 and related kinases, compounds were evaluated in standard assays routinely used to measure inhibition of cyclin-dependent kinase enzymes and other protein kinases (see for example D. W. Fry et al., J. Biol. Chem. 2001, 276, 16617-16623). The assays were carried out as described below.
Assay for Inhibition of Cdk2/Cyclin A
Cdk2 enzyme assays for IC50 determinations and kinetic evaluation are performed as follows. 96-well filter plates (Millipore MADVN6550) are used. The final assay volume is 0.1 mL containing buffer A (20 mM TRIS (tris[hydroxymethyl]aminomethane) (pH 7.4), 50 mM NaCl, 1 mM dithiothreitol, 10 mM MgCl2), […] containing 0.25 μCi [^32P]ATP, 20 ng Cdk2/cyclin A, 1 μg retinoblastoma protein, and the test compound at appropriate dilutions in buffer A (Buffer A alone without added test compound was employed as a control for no inhibition. Buffer A containing excess EDTA was used to determine the level of background ^32P in the absence of enzyme activity). All components except the ATP are added to the wells, and the plate is placed on a plate mixer for 2 minutes. The reaction is initiated by addition of [^32P]ATP, and the plate is incubated at 25° C. for 15 minutes. The reaction is terminated by addition of 0.1 mL 20% TCA. The plate is kept at 4° C. for at least 1 hour to allow the substrate to precipitate. The wells are then washed five times with 0.2 mL 10% TCA, and ^32P incorporation is determined with a beta plate counter (Wallac Inc., Gaithersburg, Md.). The IC50 of the test compound was determined using the median effect method (Chou, T-C and Talalay, P. Applications of the median effect principle for the assessment of low-dose risk of carcinogens and for the quantitation of synergism and antagonism of chemotherapeutic agents. In: New Avenues in Developmental Cancer Chemotherapy (Eds. Harrap, K. T. and Connors, T. A.), pp. 37-64. Academic Press, New York, 1987).

Cdk4/Cyclin D = Cdk4/Cyclin D (Homo sapiens, UniProt P11802); assay: Assay for inhibition of Cdk4/Cyclin D (32P incorporation into retinoblastoma protein, filter plate); format: biochemical
Description: as §1
Assay for Inhibition of Cdk4/Cyclin D
The Cdk4 enzyme assay for IC50 determination and kinetic evaluation is performed as follows. 96-well filter plates (Millipore MADVN6550) are used. The total volume is 0.1 mL containing buffer A (20 mM TRIS (tris[hydroxymethyl]aminomethane) (pH 7.4), 50 mM NaCl, 1 mM dithiothreitol, 10 mM MgCl2), 25 [[…] ATP containing 0.25 μCi [^32P]ATP, 20 ng Cdk4, 1 μg retinoblastoma protein and the test compound at appropriate dilutions in buffer A. Buffer A alone without added test compound was employed as a control for no inhibition. Buffer A containing excess EDTA was used to determine the level of background ^32P in the absence of enzyme activity. All components except the ATP are added to the wells, and the plate is placed on a plate mixer for 2 minutes. The reaction is started by adding [^32P]ATP, and the plate is incubated at 25° C. for 15 minutes. The reaction is terminated by addition of 0.1 mL 20% trichloroacetic acid (TCA). The plate is kept at 4° C. for at least 1 hour to allow the substrate to precipitate. The wells are then washed five times with 0.2 mL 10% TCA, and ^32P incorporation is determined with a beta plate counter (Wallac Inc., Gaithersburg, Md.). The IC50 of the test compound was determined using the median effect method (Chou, T-C and Talalay, P. Applications of the median effect principle for the assessment of low-dose risk of carcinogens and for the quantitation of synergism and antagonism of chemotherapeutic agents. In: New Avenues in Developmental Cancer Chemotherapy (Eds. Harrap, K. T. and Connors, T. A.), pp. 37-64. Academic Press, New York, 1987).

neointima formation = conditions: in rats; cited from earlier work

Cdk4/Cyclin D, sequence (P11802 whole entry, species assumed): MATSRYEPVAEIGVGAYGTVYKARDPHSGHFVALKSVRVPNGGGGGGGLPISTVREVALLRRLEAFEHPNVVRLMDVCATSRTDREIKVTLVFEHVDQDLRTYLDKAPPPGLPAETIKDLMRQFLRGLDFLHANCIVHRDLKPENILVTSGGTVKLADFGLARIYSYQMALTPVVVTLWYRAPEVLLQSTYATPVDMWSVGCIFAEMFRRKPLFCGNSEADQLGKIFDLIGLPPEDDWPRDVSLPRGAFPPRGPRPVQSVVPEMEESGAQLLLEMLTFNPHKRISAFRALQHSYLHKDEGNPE
Cdk4/Cyclin D, sequence (P24385 whole entry partner, species assumed): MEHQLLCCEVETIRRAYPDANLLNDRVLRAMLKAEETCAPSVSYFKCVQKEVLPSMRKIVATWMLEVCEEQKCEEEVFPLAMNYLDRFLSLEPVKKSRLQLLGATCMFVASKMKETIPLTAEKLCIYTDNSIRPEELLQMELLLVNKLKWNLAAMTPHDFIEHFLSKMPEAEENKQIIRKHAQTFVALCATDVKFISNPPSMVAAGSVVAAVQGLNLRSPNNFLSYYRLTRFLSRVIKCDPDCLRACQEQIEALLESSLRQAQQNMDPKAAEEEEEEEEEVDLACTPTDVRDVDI

For `CCOC(=O)c1cnc(Nc2ccc(N3CCNCC3)cn2)nc1NC1CCCC1` (as salt: hydrochloride), the melting point was 180 °C.
Work on `Cc1nc2cnc(Nc3ccc(N4CCNCC4)cc3)nc2n(C2CCCC2)c1=O` [8′, reference compound] yielded an IC50 (Cdk2/cyclin A) of 913 nM and an IC50 (Cdk4/Cyclin D) of 14 nM.
In the case of `CCc1nc2cnc(Nc3ccc(N4CCNCC4)cn3)nc2n(C2CCCC2)c1=O` [Example 10, 8-Cyclopentyl-6-ethyl-2-(5-piperazin-1-yl-pyridin-2-ylamino)8H-pteridin-7-one], the IC50 (Cdk2/cyclin A) is reported as > 5000 nM, the IC50 (Cdk4/Cyclin D) is reported as 335 nM and the melting point is reported as 203 to 208 °C (dec.).
`Clc1nc(Nc2ccc(N3CCOCC3)nc2)nc(NC2CCCC2)n1` [Example 14E, 6-Chloro-N-cyclopentyl-N′-(6-morpholin-4-yl-pyridin-3-yl)-[1,3,5]triazine-2,4-diamine] gave a melting point of 218 to 219 °C.
In the case of `COc1ccc(CNc2nc(N(CCO)CCO)nc3c2ncn3C(C)C)cc1` [CVT-313], the “inhibition of neointima formation” value (neointima formation) is given as “greater than 80%”.
For `COc1ccc2cnc(Nc3ccc(N4CCNCC4)cn3)nc2c1C1CCCC1` [Example 13, (8-Cyclopentyl-7-methoxy-quinazolin-2-yl)-(5-piperazin-1-yl-pyridin-2-yl)-amine], the IC50 (Cdk2/cyclin A) was 1700 nM, the IC50 (Cdk4/Cyclin D) was 4 nM and the melting point was > 200 °C.
With `Cc1nc2cnc(Nc3ccc(N4CCNCC4)cn3)nc2n(C2CCCC2)c1=O` [Example 8, 8-Cyclopentyl-6-methyl-2-(5-piperazin-1-yl-pyridin-2-ylamino)-8H-pteridin-7-one] the IC50 (Cdk2/cyclin A) was > 5000 nM, the IC50 (Cdk4/Cyclin D) was 510 nM and the melting point was 221 to 223 °C.
`CNc1nc(Nc2ccc(N3CCOCC3)cc2)nc(NC2CCCC2)n1` [Example 14D, N-Cyclopentyl-N′-methyl-N″-(4-morpholin-4-yl-phenyl)-[1,3,5]triazine-2,4,6-triamine] showed a melting point of 218 to 219 °C.
`CCc1nc2cnc(Nc3ccc(N4CCNCC4)cc3)nc2n(C2CCCC2)c1=O` [10′, reference compound] gave an IC50 (Cdk2/cyclin A) of 4120 nM and an IC50 (Cdk4/Cyclin D) of 28 nM.
`O=C1N(Cc2ccccc2)Cc2cnc(Nc3ccc(N4CCCCC4)cn3)nc2N1C1CCCC1` [Example 15, 3-Benzyl-1-cyclopentyl-7-(3,4,5,6-tetrahydro-2H-[1,3′]bipyridinyl-6′-ylamino)-3,4-dihydro-1H-pyrimido[4,5-d]pyrimidin-2-one] gave a melting point of 194 to 196 °C.

— US20040236084A1, “2-Aminopyridine substituted heterocycles” (Pfizer Inc, priority 2003, published 2004)
